# Data from patent publication US20050239872A1, “1,5-distributed pyrrolid-2-one derivatives for use as ep4 receptor agonists in the teatment of eye diseases such as glaucoma” (priority 2002, published 2005).
# Key:
# [1] = tested on: more than 80 receptors and enzymes; assay: PanLab screening against more than 80 receptors and enzymes; conditions: concentrations greater than 10 μM
# [2] = Oral pharmacokinetics in rats; assay type: in vivo
smiles,measurement,setting,value
"O=C1CC[C@H](/C=C/C(O)C(F)(F)c2ccccc2)N1CCCCCCc1nnn[nH]1 (stereo partly drawn) [Compound 7, (5R)-5[(1E)-4,4-difluoro-3-hydroxy-4-phenylbut-1-enyl]-1-[6-(1H-tetraazol-5-yl)hexyl]pyrrolidin-2-one]",activity in PanLab screening,[1],no significant activities
same,terminal elimination half life,[2],good
same,oral bioavailability,[2]; oral,good
